{"source": "patent US8389509B2", "about": "“Substituted pyrazole compounds” (Bristol-Myers Squibb Company, priority 2009, dated 2013)", "key": {"S1P3 [1]": {"target": "T1, S1P3 (Homo sapiens, UniProt Q99500)", "T1 sequence (Q99500 whole entry)": "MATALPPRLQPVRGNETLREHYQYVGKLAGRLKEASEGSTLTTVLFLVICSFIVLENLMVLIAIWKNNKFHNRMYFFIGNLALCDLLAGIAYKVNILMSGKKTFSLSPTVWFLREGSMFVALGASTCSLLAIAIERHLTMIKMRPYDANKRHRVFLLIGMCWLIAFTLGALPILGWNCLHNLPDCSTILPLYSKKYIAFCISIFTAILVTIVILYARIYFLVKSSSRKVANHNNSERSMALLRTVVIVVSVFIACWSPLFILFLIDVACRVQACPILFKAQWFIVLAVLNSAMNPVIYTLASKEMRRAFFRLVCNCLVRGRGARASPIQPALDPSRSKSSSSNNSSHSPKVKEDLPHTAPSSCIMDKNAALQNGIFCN", "experiment": "Method B: Receptor [35S] GTPγS SPA Binding Assay, S1P3", "assay_type": "biochemical", "parameters": "expressed in transfected cells; host or cells: CHO cells", "conditions": "S1P3 transfected CHO cell membranes", "protocol": "(§1) Method B: Receptor [^35S] GTPγS SPA Binding Assays\n(§2) Membranes prepared from S1P1 or S1P3 transfected CHO cells (2 μg protein) were incubated in 96-well white plates (CORNING® 3693) with test compounds diluted in DMSO, in 50 μl of reaction mixture containing 7.5 μA WGA-PVT beads (20 mg/ml), and 5 μM GDP, 20 mM HEPES pH 7.4, 100 mM NaCl, 1 mM EDTA, 5 mM MgCl2, 10 μg/ml saponin, 0.1% BSA, and 1 μM leupeptin. The assay was initiated with the addition of […] of 0.2 nM [^35S]-GTPγS (1250 Ci/mmol; NEN) in assay buffer. After 90 min incubation at room temperature, spin the plate at 1000 rpm for 5 min. The bound radionuclides were measured at TOPCOUNT®, expressed as % response relative to S1P (1 μM) activation. Data was analyzed using the four parameter logistic equation in Excel. The four parameters in the equation, Y=A+((B−A)/(1+((EC50/X)^D))), are described as following: A is the Y value (agonist activity) at the bottom plateau; B is the Y value at the top plateau; EC50 is the X value (agonist concentration) when the response is halfway between bottom and top; D is Hill coefficient. Curves were not generated for compounds having Ymax values were below 50%.\n(§3) Compounds of the present invention and Comparative Compound A were tested in the Receptor [^35S] GTPγS Binding Assays (Method A) and Receptor [^35S] In some instances, the value is an average of multiple experiments where N is the number of experiments conducted that provided satisfactory dose response curves. When more than one batch of an example was tested, the value presented is from a batch which allowed a comparison of GTPγS S1P1 and GTPγS S1P3 in which the most number of experiments were performed. Preferably, the same batch was examined in Method A and Method B. Data was not averaged across different batches of an example compound."}, "S1P1": {"target": "T2, S1P1 (Homo sapiens, UniProt P21453)", "T2 construct": "expressed in transfected cells; host or cells: CHO cells", "T2 sequence (P21453 whole entry)": "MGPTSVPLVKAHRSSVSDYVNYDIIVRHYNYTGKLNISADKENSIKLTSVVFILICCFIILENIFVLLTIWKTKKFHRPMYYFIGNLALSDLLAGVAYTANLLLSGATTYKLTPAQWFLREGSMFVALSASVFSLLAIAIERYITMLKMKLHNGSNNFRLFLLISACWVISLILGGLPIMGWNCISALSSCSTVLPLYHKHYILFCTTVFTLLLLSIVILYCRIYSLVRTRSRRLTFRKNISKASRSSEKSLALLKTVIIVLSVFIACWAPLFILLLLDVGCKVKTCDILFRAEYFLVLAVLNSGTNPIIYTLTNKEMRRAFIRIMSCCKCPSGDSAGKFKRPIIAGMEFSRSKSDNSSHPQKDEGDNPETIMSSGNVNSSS", "experiment": "Method B: Receptor [35S] GTPγS SPA Binding Assay, S1P1", "assay_type": "biochemical", "protocol": "as §1, §2, §3"}, "S1P3 [2]": {"target": "T1, S1P3", "experiment": "Method A: Receptor [35S] GTPγS Binding Assay, S1P3", "assay_type": "biochemical", "parameters": "expressed in transfected cells", "conditions": "EDG3-Gal5-bla HEK293T cell membranes", "protocol": "Method A: Receptor [35S] GTPγS Binding Assays\nCompounds were loaded in a 384 FALCON® v-bottom plate (0.5 μl/well in a 3-fold dilution). Membranes prepared from S1P1/CHO cells or EDG3-Gal5-bla HEK293T cells were added to the compound plate (40 μl/well, final protein 3 μg/well) with MULTIDROP®. [^35S]GTP (1250 Ci/mmol, Perkin Elmer) was diluted in assay buffer: 20 mM HEPES, pH7.5, 10 mM MgCl2, 150 mM NaCl, 1 mM EGTA, 1 mM DTT, 10 μM GDP, 0.1% fatty acid free BSA, and 10 μg/ml Saponin to 0.4 nM. 40 μl of the [^35S] GTP solution was added to the compound plate with a final concentration of 0.2 nM. The reaction was kept at room temperature for 45 min. At the end of incubation, all the mixtures in the compound plate were transferred to a 384 well FB filter plates via GPCR robot system. The filter plate was washed with water 4 times by using the modified manifold Embla plate washer and dried at 60° C. for 45 min. 30 μA of MicroScint 20 scintillation fluid was added to each well for counting at Packard TOPCOUNT®. EC50 is defined as the agonist concentration that corresponds to 50% of the Ymax (maximal response) obtained for each individual compound tested.\nas §3"}, "circulating lymphocytes [3]": {"test_system": "circulating lymphocytes", "experiment": "Blood Lymphocyte Reduction Assay (BLR) in rats", "assay_type": "in vivo, Lewis rats", "conditions": "oral", "protocol": "(§4) Blood Lymphocyte Reduction Assay (BLR) in Rodents\n(§5) Lewis rats or BALB/c mice were dosed orally with test article (as a solution or suspension in the vehicle) or vehicle alone (polyethylene glycol 300, “PEG300”). Blood was drawn at 4 hr and 24 h by retro-orbital bleeding. Blood lymphocyte counts were determined on an ADVIA 120 Hematology Analyzer (Siemens Healthcare Diagnostics). The results were measured as a reduction in the percentage of circulating lymphocytes as compared to the vehicle treated group at the 4 hr and 24 hr measurement. The results represent the average results of all animals within each treatment group (n=3-4).\n(§6) Compounds of the present invention were tested in the Blood Lymphocyte Reduction assay (BLR) described hereinabove and the results are shown in Table D for rats and Table E for mice."}, "circulating lymphocytes [4]": {"test_system": "circulating lymphocytes", "experiment": "Blood Lymphocyte Reduction Assay (BLR) in mice", "assay_type": "in vivo, BALB/c mice", "conditions": "oral", "protocol": "as §4, §5, §6"}, "C57BL/6 mice": {"test_system": "C57BL/6 mice", "experiment": "Mouse Experimental Autoimmune Encephalomyelitis Assay (EAE)", "assay_type": "in vivo", "conditions": "for Clinical Score on Day 24, Mean: vehicle mean 2.63", "protocol": "Mouse Experimental Autoimmune Encephalomyelitis Assay (EAE)\nMice (C57BL/6 female, 6-8 weeks of age, Charles River, n=10-12 treatment group) were immunized subcutaneously with 150 μg MOG35-55 emulsified 1:1 with […] Freund's adjuvant (sigma) supplemented with 150 μg Mycobacterium tuberculosis H37RA (Difco Laboratories). 400 ng of pertussis toxin (CalBiochem) was injected intraperitoneally on the day of immunization and two days later. Animals were dosed once daily with the test article (as a solution or suspension in the vehicle) or vehicle alone (polyethylene glycol 300, “PEG300”) starting from 1 day after immunization. Clinical scoring and body weight were taken 3 times per week until the end of the study on day 24. Clinical scoring system: 0.5: partial tail weakness; 1: limp tail or waddling gait with tail tonicity; 1.5: waddling gait with partial tail weakness; 2: waddling gait with limp tail (ataxia); 2.5: ataxia with partial limb paralysis; 3: full paralysis of one limb; 3.5: full paralysis of one limbs with partial paralysis of a second limb; 4: full paralysis of two limbs; 4.5: moribund; 5: death. A compound of the present invention was tested in the Mouse Experimental Autoimmune Encephalomyelitis assay described hereinabove and the results are shown in Table H."}}, "data": [{"smiles": "O=C(O)C1CN(Cc2ccc(-c3noc(-c4cnn(-c5ccccn5)c4C(F)(F)F)n3)cc2)C1", "note": "[Example 1, 1-(4-(5-(1-(Pyridin-2-yl)-5-(trifluoromethyl)-1H-pyrazol-4-yl)-1,2,4-oxadiazol-3-yl)benzyl)azetidine-3-carboxylic acid]", "values": [{"measurement": "EC50", "setting": "S1P3 [1]", "result": 4.4, "unit": "µM"}, {"measurement": "EC50", "setting": "S1P1; Method B (SPA), S1P1 transfected CHO cell membranes", "result": 0.0005, "unit": "µM"}, {"measurement": "GTPγS S1P3/S1P1 (Method B)", "setting": "S1P1; ratio of S1P3 EC50 to S1P1 EC50, Method B", "result": "8,800"}, {"measurement": "EC50", "setting": "S1P3 [2]", "result": 6.7, "unit": "µM"}, {"measurement": "% reduction in lymphocytes at 4 hr.", "setting": "circulating lymphocytes [3]; 0.04 mg/kg", "result": 49, "unit": "%"}, {"measurement": "% reduction in lymphocytes at 24 hr.", "setting": "circulating lymphocytes [3]; 0.04 mg/kg", "result": 6, "unit": "%"}, {"measurement": "% reduction in lymphocytes at 4 hr.", "setting": "circulating lymphocytes [3]; 0.2 mg/kg", "result": 77, "unit": "%"}, {"measurement": "% reduction in lymphocytes at 24 hr.", "setting": "circulating lymphocytes [3]; 0.2 mg/kg", "result": 15, "unit": "%"}, {"measurement": "% reduction in lymphocytes at 4 hr.", "setting": "circulating lymphocytes [3]; 1.0 mg/kg", "result": 86, "unit": "%"}, {"measurement": "% reduction in lymphocytes at 24 hr.", "setting": "circulating lymphocytes [3]; 1.0 mg/kg", "result": 61, "unit": "%"}, {"measurement": "% reduction in lymphocytes at 4 hr.", "setting": "circulating lymphocytes [3]; 3.0 mg/kg", "result": 81, "unit": "%"}, {"measurement": "% reduction in lymphocytes at 24 hr.", "setting": "circulating lymphocytes [3]; 3.0 mg/kg", "result": 75, "unit": "%"}, {"measurement": "% reduction in lymphocytes at 4 hr.", "setting": "circulating lymphocytes [4]; 0.3 mg/kg", "result": 74, "unit": "%"}, {"measurement": "% reduction in lymphocytes at 24 hr.", "setting": "circulating lymphocytes [4]; 0.3 mg/kg", "result": 30, "unit": "%"}, {"measurement": "% reduction in lymphocytes at 4 hr.", "setting": "circulating lymphocytes [4]; 1.0 mg/kg", "result": 85, "unit": "%"}, {"measurement": "% reduction in lymphocytes at 24 hr.", "setting": "circulating lymphocytes [4]; 1.0 mg/kg", "result": 68, "unit": "%"}, {"measurement": "% reduction in lymphocytes at 4 hr.", "setting": "circulating lymphocytes [4]; 3.0 mg/kg", "result": 85, "unit": "%"}, {"measurement": "% reduction in lymphocytes at 24 hr.", "setting": "circulating lymphocytes [4]; 3.0 mg/kg", "result": 76, "unit": "%"}, {"measurement": "% reduction in lymphocytes at 4 hr.", "setting": "circulating lymphocytes [4]; 10.0 mg/kg", "result": 84, "unit": "%"}, {"measurement": "% reduction in lymphocytes at 24 hr.", "setting": "circulating lymphocytes [4]; 10.0 mg/kg", "result": 88, "unit": "%"}, {"measurement": "Clinical Score on Day 24, Mean", "setting": "C57BL/6 mice; 1.0 mg/kg once daily", "result": 0.32}, {"measurement": "Clinical Score on Day 24, Mean", "setting": "C57BL/6 mice; 3.0 mg/kg once daily", "result": 0.77}, {"measurement": "Clinical Score on Day 24, Mean", "setting": "C57BL/6 mice; 10.0 mg/kg once daily", "result": 0.30}, {"measurement": "disease progression as determined by the clinical scores", "setting": "C57BL/6 mice; C57Bl/6 mice, prophylactic oral dosing", "result": "inhibits disease progression"}]}]}
